What was measured:
[1] = Relative antidiuretic activity in relation to DDAVP; format: in vivo; settings: relative activity figure, DDAVP arbitrarily set at 1.00
Source text: (§1) Thus, the strenghts in Table I are expressed as relative activity figures, data for DDAVP as a comparative compound being arbitrarily set at 1.00.

[2] = Relative blood pressure (raising) activity in relation to DDAVP; format: in vivo
Source text: as §1

[3] = Relative uterotonic activity in relation to DDAVP; settings: relative activity figure, DDAVP arbitrarily set at 1.00
Source text: as §1

SMILES | Antidiuresis (relative activity) [1] | Blood pressure (relative activity) ([2]; in vivo) | Uterotonic (relative activity) [3] | Blood pressure (relative activity) ([2]; relative activity figure, DDAVP arbitrarily set at 1.00)
NC(=O)CC[C@@H]1NC(=O)[C@H](Cc2ccccc2)NC(=O)[C@H](Cc2ccc(O)cc2)NC(=O)[C@@H](N)CSSC[C@@H](C(=O)N2CCC[C@H]2C(=O)N[C@@H](CCCN=C(N)N)C(=O)NCC(N)=O)NC(=O)[C@H](CC(N)=O)NC1=O [Arg-vasopressin, arginine-vasopressin] | 0.10 | 1450 | 1.0 | 
NC(=O)CC[C@@H]1NC(=O)[C@H](Cc2ccccc2)NC(=O)[C@H](Cc2ccc(O)cc2)NC(=O)CCSSC[C@@H](C(=O)N2CCC[C@H]2C(=O)N[C@H](CCCN=C(N)N)C(=O)NCC(N)=O)NC(=O)[C@H](CC(N)=O)NC1=O [DDAVP, desamino-D-arginine^8 -vasopressin] | 1.00 |  | 1.00 | 1.00

From patent US4148787A, “Antidiuretically effective polypeptide and a process for preparing the same” (Ferring AB, priority 1976, dated 1979)
